Results taken from patent US20250034150A1, “BTK INHIBITORS” (BIOGEN MA INC., priority 2021, published 2025).
Counter-ions that a name gives are not always drawn. Like-named read-outs stand apart in the source and are kept apart here.

Columns and labels:
[1] = test system: CD69 expression on CD19+ B cells in human whole blood; assay: In Vitro whole blood CD69 Assay; assay type: cell-based; details: B-cell, read-out: In Vitro HWB CD69 Assay IC50 Score
Description: Human heparinized venous blood from health donors was aliquoted into 96-well plate and “spiked” with serial dilutions of formula I compounds in DMSO or with DMSO without drug. The final concentration of DMSO in all wells was 0.1%. The plate was incubated at 37° C. for 30 min. Drug-containing samples were stimulated with 0.1 μg/mL mouse anti-human IgD-dextran (1A62) or 20 μg/mL polyclonal rabbit F(ab′)2 anti-human IgD. Phosphate-buffered saline (PBS) was added to the negative control unstimulated sample and the plates were incubated overnight (18 to 22 hours) at 37° C. Cells were stained with fluorochrome-conjugated anti-CD19 and anti-CD69 antibodies. Lyse/fix solution was used to remove red blood cells by hypotonic lysis and to fix the remaining cells, which were then analyzed by flow cytometry. CD19+ B cells were gated and analyzed for CD69 expression.

BTK = biological target: T1, BTK (Homo sapiens, UniProt Q06187); assay: In Vitro BTK Kinase Assay: Btk-PolyGAT-LS Assay; assay type: biochemical; details: active BTK enzyme 0.25 nM, polyGAT 100 nM, 30 minutes, TRF readout; read-out: In Vitro BTK Kinase Assay IC50 Score
T1 construct: purchased Upstate 14-552
Outline: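 IC50 values came from a four-parameter fit, with DMSO controls as 100% activity and EDTA controls as 0%. The signal was TR-FRET from a Tb-PY20 antibody binding fluorescein-polyGAT (100 nM) phosphorylated by 0.25 nM BTK. Kinase reactions used 10 μM ATP, a 4-fold compound titration, and ran 30 minutes before EDTA stop.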

[2] = human heparinized whole blood, anti-human IgD stimulation overnight, CD19+ B cells, flow cytometry

T1 sequence (Q06187 whole entry): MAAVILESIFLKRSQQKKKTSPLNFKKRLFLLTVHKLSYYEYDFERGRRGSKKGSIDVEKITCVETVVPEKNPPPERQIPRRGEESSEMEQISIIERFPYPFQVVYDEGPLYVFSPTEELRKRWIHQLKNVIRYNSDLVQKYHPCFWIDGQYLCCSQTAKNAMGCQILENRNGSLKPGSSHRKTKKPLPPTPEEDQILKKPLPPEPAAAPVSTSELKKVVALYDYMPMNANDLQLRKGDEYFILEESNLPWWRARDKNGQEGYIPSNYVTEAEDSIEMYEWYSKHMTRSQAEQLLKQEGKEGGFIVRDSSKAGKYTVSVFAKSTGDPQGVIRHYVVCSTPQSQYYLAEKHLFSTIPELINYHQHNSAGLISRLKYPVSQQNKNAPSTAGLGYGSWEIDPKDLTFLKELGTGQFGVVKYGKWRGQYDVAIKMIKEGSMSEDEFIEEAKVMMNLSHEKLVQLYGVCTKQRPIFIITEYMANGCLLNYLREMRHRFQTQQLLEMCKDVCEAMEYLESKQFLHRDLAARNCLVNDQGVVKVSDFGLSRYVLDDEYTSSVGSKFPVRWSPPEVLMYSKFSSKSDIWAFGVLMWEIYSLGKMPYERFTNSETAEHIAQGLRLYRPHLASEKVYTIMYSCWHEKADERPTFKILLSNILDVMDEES

Compound	IC50 (BTK) [µM]	IC50 [1, 2] [µM]	IC50 ([1]; Homo sapiens) [µM]
CC1CN(c2nc(-c3cnn(C)c3)cn3nccc23)CCC1CNC(=O)c1noc(C(C)(C)C)n1 (stereo not drawn) [Example 144, 5-(tert-butyl)-N-((3-methyl-1-(6-(1-methyl-1H-pyrazol-4-yl)pyrazolo[1,5-a]pyrazin-4-yl)piperidin-4-yl)methyl)-1,2,4-oxadiazole-3-carboxamide]	0.001 to 0.01	–	< 1
Cc1cc(-c2nc(N3CCOCC3)cn3nccc23)ccc1CNC(=O)c1cn(C(C)(C)C)nn1 [Example 120, 1-(tert-butyl)-N-(2-methyl-4-(6-morpholinopyrazolo[1,5-a]pyrazin-4-yl)benzyl)-1H-1,2,3-triazole-4-carboxamide]	0.001 to 0.01	1 to 10	–
Cn1cc(-c2cc3nccn3c(-c3ccc(CNC(=O)c4cnn(C(C)(C)C)c4)cc3)n2)cn1 [Example 57, 1-(tert-butyl)-N-(4-(7-(1-methyl-1H-pyrazol-4-yl)imidazo[1,2-c]pyrimidin-5-yl)benzyl)-1H-pyrazole-4-carboxamide]	0.001 to 0.01	1 to 10	–
Cn1cc(-c2cc(-c3ccc(CNC(=O)c4noc(C5(C)CC5)n4)cc3)n3cnnc3c2)cn1 [Example 76, N-(4-(7-(1-methyl-1H-pyrazol-4-yl)-[1,2,4]triazolo[4,3-a]pyridin-5-yl)benzyl)-5-(1-methylcyclopropyl)-1,2,4-oxadiazole-3-carboxamide]	0.01 to 1	1 to 10	–
Cn1cc(-c2cn3nccc3c(-c3ccc(CN4CCN(CC(C)(C)C)CC4=O)cc3)n2)cn1 [Example 33, 1-(4-(6-(1-methyl-1H-pyrazol-4-yl)pyrazolo[1,5-a]pyrazin-4-yl)benzyl)-4-neopentylpiperazin-2-one]	0.001 to 0.01	1 to 10	–
Cc1cc(-c2nc(-c3cnn(C)c3)cn3nccc23)ccc1CNC(=O)c1ccn(C(C)(C)C)n1 [Example 18, 1-(tert-butyl)-N-(2-methyl-4-(6-(1-methyl-1H-pyrazol-4-yl)pyrazolo[1,5-a]pyrazin-4-yl)benzyl)-1H-pyrazole-3-carboxamide]	0.001 to 0.01	< 1	–
COCCOc1cn2nccc2c(-c2ccc(CNC(=O)c3noc(C(C)(C)C)n3)c(C)c2)n1 [Example 132, 5-(tert-butyl)-N-(4-(6-(2-methoxyethoxy)pyrazolo[1,5-a]pyrazin-4-yl)-2-methylbenzyl)-1,2,4-oxadiazole-3-carboxamide]	0.001 to 0.01	1 to 10	–
CC(C)(C)c1nc(C(=O)NCc2ccc(-c3nc(N4CCOCC4)cn4nccc34)cc2)no1 [Example 23, 5-(tert-butyl)-N-(4-(6-morpholinopyrazolo[1,5-a]pyrazin-4-yl)benzyl)-1,2,4-oxadiazole-3-carboxamide]	1 to 10	1 to 10	–
Cn1cc(-c2cn3nccc3c(-c3ccc(CN4CCN(CC(C)(C)C)CC4=O)c(F)c3)n2)cn1 [Example 35, 1-(2-fluoro-4-(6-(1-methyl-1H-pyrazol-4-yl)pyrazolo[1,5-a]pyrazin-4-yl)benzyl)-4-neopentylpiperazin-2-one]	0.001 to 0.01	1 to 10	–
Cn1cc(-c2cn3nccc3c(-c3ccc(CNC(=O)c4nnc(C(C)(C)C)o4)c(F)c3)n2)cn1 [Example 6, 5-(tert-butyl)-N-(2-fluoro-4-(6-(1-methyl-1H-pyrazol-4-yl)pyrazolo[1,5-a]pyrazin-4-yl)benzyl)-1,3,4-oxadiazole-2-carboxamide]	< 0.001	–	< 1
Cn1cc(-c2cn3nccc3c(-c3ccc(CNC(=O)c4ccn(C(C)(C)C)n4)cc3)n2)cn1 [Example 1, 1-(tert-butyl)-N-(4-(6-(1-methyl-1H-pyrazol-4-yl)pyrazolo[1,5-a]pyrazin-4-yl)benzyl)-1H-pyrazole-3-carboxamide]	0.01 to 1	1 to 10	–
Cc1cc(-c2nc(-c3cnn(C)c3)cn3nccc23)ccc1CN1CCN(CC(C)(C)C)CC1=O [Example 31, 1-(2-methyl-4-(6-(1-methyl-1H-pyrazol-4-yl)pyrazolo[1,5-a]pyrazin-4-yl)benzyl)-4-neopentylpiperazin-2-one]	0.001 to 0.01	1 to 10	–
Cn1cc(-c2cc(-c3ccc(CNC(=O)c4noc(C5(C)CC5)n4)c(F)c3)c3ccnn3c2)cn1 [Example 67, N-(2-fluoro-4-(6-(1-methyl-1H-pyrazol-4-yl)pyrazolo[1,5-a]pyridin-4-yl)benzyl)-5-(1-methylcyclopropyl)-1,2,4-oxadiazole-3-carboxamide]	< 0.001	–	< 1
Cn1cc(-c2cn3nccc3c(-c3ccc(CNC(=O)c4noc(C5(CF)CC5)n4)cc3)n2)cn1 [Example 20, 5-(1-(fluoromethyl)cyclopropyl)-N-(4-(6-(1-methyl-1H-pyrazol-4-yl)pyrazolo[1,5-a]pyrazin-4-yl)benzyl)-1,2,4-oxadiazole-3-carboxamide]	< 0.001	< 1	–
Cn1cc(-c2cn3nccc3c(-c3cc(F)c(CNC(=O)c4cn(C(C)(C)C)nn4)cc3F)n2)cn1 [Example 98, 1-(tert-butyl)-N-(2,5-difluoro-4-(6-(1-methyl-1H-pyrazol-4-yl)pyrazolo[1,5-a]pyrazin-4-yl)benzyl)-1H-1,2,3-triazole-4-carboxamide]	0.001 to 0.01	1 to 10	–
Cn1cc(-c2cn3nccc3c(-c3ccc(CNC(=O)c4cn(C(C)(C)C)nn4)c(C(F)F)c3)n2)cn1 [Example 105, 1-(tert-butyl)-N-(2-(difluoromethyl)-4-(6-(1-methyl-1H-pyrazol-4-yl)pyrazolo[1,5-a]pyrazin-4-yl)benzyl)-1H-1,2,3-triazole-4-carboxamide]	< 0.001	< 1	–
Cc1cc(-c2nc(N3CCN(C)CC3)cn3nccc23)ccc1CNC(=O)c1cn(C(C)(C)C)nn1 [Example 121, 1-(tert-butyl)-N-(2-methyl-4-(6-(4-methylpiperazin-1-yl)pyrazolo[1,5-a]pyrazin-4-yl)benzyl)-1H-1,2,3-triazole-4-carboxamide trifluoroacetate]	0.01 to 1	1 to 10	–
Cc1cc(-c2nc(N3CCN(C)CC3)cn3nccc23)ccc1CNC(=O)c1nnn(C(C)(C)C)n1 [Example 130]	0.001 to 0.01	1 to 10	–

Continued, in another order:

IC50 (BTK) [µM]	IC50 [1, 2] [µM]	Compound	IC50 ([1]; Homo sapiens) [µM]
< 0.001	< 1	Cc1cc(-c2nc(-c3cnn(C)c3)cn3nccc23)ccc1CNC(=O)c1cnn(C(C)(C)C)c1 [Example 17, 1-(tert-butyl)-N-(2-methyl-4-(6-(1-methyl-1H-pyrazol-4-yl)pyrazolo[1,5-a]pyrazin-4-yl)benzyl)-1H-pyrazole-4-carboxamide]	–
< 0.001	< 1	Cn1cc(-c2cc(-c3ccc(CNC(=O)c4nc(C(C)(C)CF)no4)c(F)c3)c3ccnn3c2)cn1 [Example 71, 3-(1-fluoro-2-methylpropan-2-yl)-N-(2-fluoro-4-(6-(1-methyl-1H-pyrazol-4-yl)pyrazolo[1,5-a]pyridin-4-yl)benzyl)-1,2,4-oxadiazole-5-carboxamide]	–
< 0.001	< 1	Cn1cc(-c2cn3nccc3c(-c3ccc(CNC(=O)c4noc(C(C)(C)C)n4)c(F)c3F)n2)cn1 [Example 88, 5-(tert-butyl)-N-(2,3-difluoro-4-(6-(1-methyl-1H-pyrazol-4-yl)pyrazolo[1,5-a]pyrazin-4-yl)benzyl)-1,2,4-oxadiazole-3-carboxamide]	–
< 0.001	1 to 10	Cn1cc(-c2cn3nccc3c(-c3ccc(CNC(=O)c4cnn(C(C)(C)C)n4)c(C(F)F)c3)n2)cn1 [Example 104, 2-(tert-butyl)-N-(2-(difluoromethyl)-4-(6-(1-methyl-1H-pyrazol-4-yl)pyrazolo[1,5-a]pyrazin-4-yl)benzyl)-2H-1,2,3-triazole-4-carboxamide]	–
< 0.001	< 1	Cn1cc(-c2cn3nccc3c(-c3ccc(CNC(=O)c4cnn(C(C)(C)C)n4)c(F)c3F)n2)cn1 [Example 92, 2-(tert-butyl)-N-(2,3-difluoro-4-(6-(1-methyl-1H-pyrazol-4-yl)pyrazolo[1,5-a]pyrazin-4-yl)benzyl)-2H-1,2,3-triazole-4-carboxamide]	–
< 0.001	< 1	Cn1cc(-c2cn3nccc3c(-c3ccc(CNC(=O)c4nnn(C(C)(C)C)n4)cc3)n2)cn1 [Example 3, 2-(tert-butyl)-N-(4-(6-(1-methyl-1H-pyrazol-4-yl)pyrazolo[1,5-a]pyrazin-4-yl)benzyl)-2H-tetrazole-5-carboxamide]	–
< 0.001	< 1	Cn1cc(-c2cn3nccc3c(-c3ccc(CNC(=O)c4nnn(C(C)(C)C)n4)c(F)c3F)n2)cn1 [Example 87, 2-(tert-butyl)-N-(2,3-difluoro-4-(6-(1-methyl-1H-pyrazol-4-yl)pyrazolo[1,5-a]pyrazin-4-yl)benzyl)-2H-tetrazole-5-carboxamide]	–
< 0.001	< 1	Cn1cc(-c2cn3nccc3c(N3CC[C@@H](CNC(=O)c4noc(C(C)(C)C)n4)C(F)(F)C3)n2)cn1 (single isomer, unassigned) [Example 158]	–
< 0.001	< 1	Cc1cc(-c2cc(-c3cnn(C)c3)cn3nccc23)ccc1CNC(=O)c1cn(C(C)(C)C)nn1 [Example 66, 1-(tert-butyl)-N-(2-methyl-4-(6-(1-methyl-1H-pyrazol-4-yl)pyrazolo[1,5-a]pyridin-4-yl)benzyl)-1H-1,2,3-triazole-4-carboxamide]	–
